Consider 2 substances from patent publication US12097190B2, “Therapeutic use of levorotatory β-lactams in hematopoiesis, immuno-oncology therapy, and regulation of lipoprotein and apolipoprotein levels” (Alpha-1 Biologics, LLC, priority 2017, dated 2024).

Assay [1] concerns HIV non-permissive (minus) clone 17. Put plainly: Adherence assay on coverslips, U937 minus clone 17. Type of assay: cell-based, human. The protocol:
(§1) To coverslips prepared with chemoattractants as described above, 10^6 cells in 90 μl HBSS were mixed to uniformity, and incubated for 30 min in humidified 5% CO2 at 37° C. without dehydration. To detect interacting effects of stimulants, cells were delivered in an 80 μl volume to coverslips previously prepared with 10 μl of one stimulant, mixed to uniformity, and incubated for 15 min at 37° C. Subsequently, an additional stimulant was delivered in a 10 μl volume to each coverslip, mixed with pre-incubated cells to uniformity, and incubated for 30-60 min at 37° C. […] Slides were examined by epi-illumination UV microscopy on a Zeiss Axioskop Means and standard deviations were determined by counting adherent cells in at least three fields/coverslip.
(§2) Means and standard deviations represent the difference between stimulated and unstimulated adherence. […] Adherence was optimized for each chemoattractant and adherence induced by each chemoattractant was enumerated in more than three separate experiments.

The test system of assay [2] is HIV permissive (plus) clone 10. The assay is described as follows: Adherence assay on coverslips, U937 plus clone 10. Type of assay: cell-based, human. As for the experimental part: as §1, §2
Assay [3] relates to Human acute myeloid leukemia cells (AML). The conditions noted are these: cited from earlier work.
The test system of another assay is CD4+ T lymphocytes. The settings on record: cited from earlier work.
For assay [4], the system named is transplanted human stem cells, transplanted AML cells. The conditions noted are these: mouse model; cited from earlier work.

Take Ser-Phe-Leu-Leu-Arg-Asn [SFLLRN]: the stimulation of adherence result in assay [1] and in assay [2] was “Neither subclone was influenced” throughout.
Turning to “α1PI: abundant proteinase inhibitor alpha-1 proteinase inhibitor (α1PI, α1 antitrypsin)”, the SDF-1-induced pseudopodia formation result in assay [3] (AML cells) is reported as “prevented”. Moreover, the SDF-1 dependent migration entry in assay [3] (pre-incubation of AML cells) is recorded as “significantly reduced”. Moreover, the “CD4+ counts” value with CD4+ T lymphocytes (HIV-1-infected patients with acquired and uninfected patients with inherited α1PI deficiency) is “caused an increase in CD4+ counts”. Moreover, the LDL in subjects result with CD4+ T lymphocytes (α1PI treatment) was “produced decreased LDL”. In addition, in assay [4], the “homing of stem cells to and egress of AML cells from bone marrow” value is “inhibited homing of transplanted human stem cells to bone marrow and egress of transplanted AML cells from bone marrow”.
